Experimental data: patent US20240336604A1 (THE UNITED STATES OF AMERICA, AS REPRESENTED BY THE …, priority 2021, published 2024)

How the values were obtained:
Format in all cases: cell-based
D2 DAR = D2 DAR (Homo sapiens, UniProt P14416); assay: DiscoverX D2 DAR β-arrestin recruitment assay; design: host or cells: CHO; conditions: EC80 concentration of DA (1 μM)
From the text: For a secondary-screen and selectivity assays, DAR PathHunter®-arrestin GPCR cell lines from DiscoverX (Fremont, CA) were used. In the D2 DAR PathHunter®-arrestin GPCR cell line, the D2 DAR is overexpressed and fused with a small 42-amino acid fragment of β-galactosidase called ProLink™ on a CHO cellular background expressing a fusion protein of β-arrestin and a larger N-terminal deletion mutant of β-galactosidase (“enzyme acceptor”). When the D2 DAR is activated by dopamine, it stimulates binding of β-arrestin to the ProLink-tagged DAR and the two complementary parts of β-galactosidase form a functional enzyme. When substrate (PathHunter™ Detection reagent) is added, β-galactosidase hydrolyzes it and generates a chemiluminescent signal.

D3 DAR [1] = target: T1, D3 DAR (Homo sapiens, UniProt P35462); assay: DiscoverX D3 DAR β-arrestin recruitment assay; design: host or cells: CHO; conditions: for IC50: EC80 concentration of DA (30 nM), read-out: D3 DAR IC50; for Emax / D3 DAR Imax: Imax=maximum inhibition, EC80 DA (30 nM)
From the text: A D3 DAR β-arrestin cell line from DiscoverX (Fremont, CA) was used as described in the protocol below (Table 2). A CHO cell line engineered to overexpress the D3 DAR fused with a small 42-amino acid fragment of β-galactosidase called ProLink™ and a fusion protein consisting of β-arrestin and a larger N-terminal deletion mutant of β-galactosidase was used (DiscoverX catalogue number 93-0579C2). When the D3 DAR is activated by dopamine, it stimulates binding of β-arrestin to ProLink-tagged D3 DARs, and the two complementary parts of β-galactosidase form a functional enzyme. When substrate (PathHunter® Detection reagent, DiscoverX 93-0001) is added, β-galactosidase hydrolyzes it and generates a chemiluminescent signal.

D3 DAR [2] = target: T1, D3 DAR; assay: Go BRET activation assay, D3 DAR; conditions: EC80 DA (30 nM); for Emax: 5 min, read-out: D3 Go BRET Imax
Experimental: Briefly, HEK293T cells transiently expressing either the D2 DAR or D3 DAR and GαoA-Rluc8, untagged-β1, and mVenus-γ2 were harvested with EBSS, plated in 96-well white plates at 20,000 cells/well in DPBS and incubated at RT for 45 min. […] BRET signal was determined by quantifying and calculating the ratio of the light emitted by mVenus (525 nm) over that emitted by RLuc8 (485 nm) using a PHERAstar FSX Microplate Reader (BMG Labtech).

T1 sequence (P35462 whole entry, the tested form may be a part): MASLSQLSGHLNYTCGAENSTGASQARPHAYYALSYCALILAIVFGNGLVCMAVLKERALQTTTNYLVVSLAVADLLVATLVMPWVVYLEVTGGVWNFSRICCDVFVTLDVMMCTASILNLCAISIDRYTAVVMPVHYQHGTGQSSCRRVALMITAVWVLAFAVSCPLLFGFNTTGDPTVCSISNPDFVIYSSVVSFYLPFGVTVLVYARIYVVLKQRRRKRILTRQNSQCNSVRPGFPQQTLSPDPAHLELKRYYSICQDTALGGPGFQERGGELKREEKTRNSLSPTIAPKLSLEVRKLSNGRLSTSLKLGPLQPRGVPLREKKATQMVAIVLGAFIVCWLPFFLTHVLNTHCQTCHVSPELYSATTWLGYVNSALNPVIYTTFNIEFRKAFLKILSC
Sequence of D2 DAR (P14416 whole entry, the tested form may be a part): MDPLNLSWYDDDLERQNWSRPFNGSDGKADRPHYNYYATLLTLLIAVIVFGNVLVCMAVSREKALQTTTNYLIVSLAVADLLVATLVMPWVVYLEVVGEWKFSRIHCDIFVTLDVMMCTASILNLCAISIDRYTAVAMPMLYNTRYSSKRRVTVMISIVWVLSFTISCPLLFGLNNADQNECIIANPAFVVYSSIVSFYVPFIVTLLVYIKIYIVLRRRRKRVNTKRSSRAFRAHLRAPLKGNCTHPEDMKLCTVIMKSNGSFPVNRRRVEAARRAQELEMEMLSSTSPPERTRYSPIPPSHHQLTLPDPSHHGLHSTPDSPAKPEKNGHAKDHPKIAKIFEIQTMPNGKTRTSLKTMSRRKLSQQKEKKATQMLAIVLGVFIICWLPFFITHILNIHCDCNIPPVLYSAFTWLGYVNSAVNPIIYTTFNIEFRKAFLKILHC

| Compound | D2 DAR Imax (D2 DAR) | IC50 (D2 DAR) | IC50 (D3 DAR [1]) | Emax (D3 DAR [1]) | Emax (D3 DAR [2]) | IC50 (D3 DAR [2]) | D3 DAR Imax (D3 DAR [1]) | D3 Go BRET Imax (D3 DAR [2]) |
| --- | --- | --- | --- | --- | --- | --- | --- | --- |
| Cc1ccc(NS(=O)(=O)c2c(C)[nH]c(C)c2C(=O)N2CCC(F)(F)C2)cc1Cl [Cmp. 2] | NA (“NA” indicates not active) | > 100 µM | 10 to 50 µM | 80 to 100% | > 100% | 10 to 50 µM | – | – |
| Cc1ccc(NS(=O)(=O)c2c(C)[nH]c(C)c2C(=O)N2CCCC2C)cc1Cl (centres unmarked) [compound 3] | NA (“NA” indicates not active) | > 100 µM | 10 to 50 µM | 80 to 100% | > 100% | 1 to 10 µM | – | – |
| Cc1[nH]c(C)c(S(=O)(=O)Nc2ccc(C(C)C)cc2)c1C(=O)N1CCCC1 [compound 4] | NA (“NA” indicates not active) | > 100 µM | 10 to 50 µM | 80 to 100% | > 100% | 1 to 10 µM | – | – |
| Cc1ccc(NS(=O)(=O)c2c(C)[nH]c(C)c2C(=O)N2CCC2)cc1Cl [compound 6] | NA (“NA” indicates not active) | > 100 µM | 10 to 50 µM | 80 to 100% | > 100% | 10 to 50 µM | – | – |
| Cc1[nH]c(C)c(S(=O)(=O)Nc2ccc(Cl)c(C(F)(F)F)c2)c1C(=O)N1CCCC1 [compound 7] | NA (“NA” indicates not active) | > 100 µM | < 10 µM | 80 to 100% | > 100% | 1 to 10 µM | – | – |
| CCc1ccc(NS(=O)(=O)c2c(C)[nH]c(C)c2C(=O)N2CCCC2)cc1Cl [compound 8] | NA (“NA” indicates not active) | > 100 µM | 10 to 50 µM | 80 to 100% | 80 to 100% | 1 to 10 µM | – | – |
| Cc1ccc(CNS(=O)(=O)c2c(C)[nH]c(C)c2C(=O)N2CCCC2)cc1Cl [compound 9] | NA (“NA” indicates not active) | > 100 µM | 50 to 100 µM | – | – | > 50 µM | Curve Incomplete | NA (NA means not active) |
| Cc1ccc(NS(=O)(=O)c2c(C)[nH]c(C)c2C(=O)N2CCCC2)cc1 [compound 10] | NA (“NA” indicates not active) | > 100 µM | 10 to 50 µM | 80 to 100% | – | > 50 µM | – | – |
| Cc1ccc(NS(=O)(=O)c2c(C)[nH]c(C)c2C(=O)N2CCCCC2)cc1Cl [compound 11] | NA (“NA” indicates not active) | > 100 µM | 10 to 50 µM | 80 to 100% | > 100% | 10 to 50 µM | – | – |
| Cc1ccc(NS(=O)(=O)c2c(C)[nH]c(C)c2C(=O)N2CCCC2)cc1C [compound 12] | NA (“NA” indicates not active) | > 100 µM | 10 to 50 µM | 80 to 100% | – | > 50 µM | – | – |
| Cc1[nH]c(C)c(S(=O)(=O)Nc2ccc(F)c(Cl)c2)c1C(=O)N1CCCC1 [compound 13] | NA (“NA” indicates not active) | > 100 µM | 10 to 50 µM | 80 to 100% | > 100% | 10 to 50 µM | – | – |
| Cc1[nH]c(C)c(S(=O)(=O)Nc2cccc(Cl)c2)c1C(=O)N1CCCC1 [compound 14] | NA (“NA” indicates not active) | > 100 µM | 10 to 50 µM | 80 to 100% | > 100% | 1 to 10 µM | – | – |
| CCc1ccc(NS(=O)(=O)c2c(C)[nH]c(C)c2C(=O)N2CCCC2)cc1 [compound 15] | NA (“NA” indicates not active) | > 100 µM | < 10 µM | 80 to 100% | 80 to 100% | 10 to 50 µM | – | – |
| Cc1ccc(NS(=O)(=O)c2c(C)[nH]c(C)c2C(=O)N2CCCC2)cc1F [compound 16] | NA (“NA” indicates not active) | > 100 µM | 10 to 50 µM | 80 to 100% | > 100% | 10 to 50 µM | – | – |
| Cc1[nH]c(C)c(S(=O)(=O)Nc2ccc(C(F)(F)F)c(Cl)c2)c1C(=O)N1CCN(C(=O)OC(C)(C)C)CC1 [compound 19, tert-butyl 4-(4-(N-(3-chloro-4-(trifluoromethyl)phenyl)sulfamoyl)-2,5-dimethyl-1H-pyrrole-3-carbonyl)piperazine-1-carboxylate] | NA (“NA” indicates not active) | > 100 µM | 50 to 100 µM | 80 to 100% | > 100% | 10 to 50 µM | – | – |
| Cc1[nH]c(C)c(S(=O)(=O)Nc2ccc(C(F)(F)F)c(Cl)c2)c1C(=O)N1CCNCC1.Cl [compound 20, N-(3-chloro-4-(trifluoromethyl)phenyl)-2,5-dimethyl-4-(piperazine-1-carbonyl)-1H-pyrrole-3-sulfonamide] | NA (“NA” indicates not active) | > 100 µM | 50 to 100 µM | – | – | > 50 µM | Curve Incomplete | – |
| Cc1[nH]c(C)c(S(=O)(=O)Nc2ccc(C(F)(F)F)c(Cl)c2)c1C(=O)N(C)C [compound 21, 4-(n-(3-chloro-4-(trifluoromethyl)phenyl)sulfamoyl)-N,N,2,5-tetramethyl-1H-pyrrole-3-carboxamide] | NA (“NA” indicates not active) | > 100 µM | < 10 µM | 80 to 100% | > 100% | 10 to 50 µM | – | – |
| Cc1[nH]c(C)c(S(=O)(=O)Nc2ccc(C(F)(F)F)c(Cl)c2)c1C(=O)O [compound 22, 4-(N-(3-chloro-4-(trifluoromethyl)phenyl)sulfamoyl)-2,5-dimethyl-1H-pyrrole-3-carboxylic acid] | NA (“NA” indicates not active) | > 100 µM | 50 to 100 µM | – | > 100% | 10 to 50 µM | Curve Incomplete | – |
| [2H]C1([2H])CCC([2H])([2H])N1C(=O)c1c(C)[nH]c(C)c1S(=O)(=O)Nc1ccc(C(F)(F)F)c(Cl)c1 [compound 23] | NA (“NA” indicates not active) | > 100 µM | < 10 µM | 80 to 100% | > 100% | 1 to 10 µM | – | – |
| Cc1[nH]c(C)c(S(=O)(=O)N2CCC(F)(F)C2)c1C(=O)Nc1ccc(C(F)(F)F)c(Cl)c1 [compound 24] | NA (“NA” indicates not active) | > 100 µM | 50 to 100 µM | – | – | > 50 µM | Curve Incomplete | – |
| Cc1[nH]c(C)c(S(=O)(=O)Nc2ccc(C(F)(F)F)c(Cl)c2)c1C(=O)N1CC(F)(F)C(F)(F)C1 [compound 27, N-(3-chloro-4-(trifluoromethyl)phenyl)-2,5-dimethyl-4-(3,3,4,4-tetrafluoropyrrolidine-1-carbonyl)-1H-pyrrole-3-sulfonamide] | NA (“NA” indicates not active) | > 100 µM | 10 to 50 µM | 80 to 100% | > 100% | 1 to 10 µM | – | – |
| Cc1[nH]c(C)c(S(=O)(=O)Nc2ccc(S(F)(F)(F)(F)F)cc2)c1C(=O)N1CCC(F)(F)C1 [compound 28] | NA (“NA” indicates not active) | > 100 µM | < 10 µM | 80 to 100% | 80 to 100% | 1 to 10 µM | – | – |
| CCN(C)C(=O)c1c(C)[nH]c(C)c1S(=O)(=O)Nc1ccc(C(F)(F)F)c(Cl)c1 [compound 29] | NA (“NA” indicates not active) | > 100 µM | 10 to 50 µM | 80 to 100% | > 100% | 10 to 50 µM | – | – |
| Cc1[nH]c(C)c(S(=O)(=O)Nc2cc(Cl)c(C(F)(F)F)cc2Br)c1C(=O)N1CCC(F)(F)C1 [compound 41, N-(2-bromo-5-chloro-4-(trifluoromethyl)phenyl)-4-(3,3-difluoropyrrolidine-1-carbonyl)-2,5-dimethyl-1H-pyrrole-3-sulfonamide] | NA (“NA” indicates not active) | > 100 µM | < 10 µM | 80 to 100% | – | – | – | – |
| CCOC(=O)C1=NOC2(C1)C(=O)Nc1ccc(OC(F)(F)F)cc12 (centres unmarked) [compound 45] | NA (“NA” indicates not active) | > 100 µM | 10 to 50 µM | – | – | – | + (A “+” is used to denote compounds with D3 DAR Imax (Imax=maximum inhibition) between 80% to 100%) | – |
| N-(3-chloro-4-(trifluoromethyl)phenyl)-2,5-dimethyl-4-(morpholine-4-carbonyl)-1H-pyrrole-3-sulfonamide [compound 30] | NA (“NA” indicates not active) | > 100 µM | > 100 µM | – | – | – | Curve Incomplete | – |
